The molecules below were run against Beta-3 Adrenergic Receptor (Homo sapiens (Human), UniProt P13945) (assay: Homogeneous Time-Resolved Fluorescence (HTRF) cAMP antagonist assay, IC50 determination). Conditions: CHO-K1 cells stably expressing recombinant receptor, isoproterenol at EC90.
Type: cell-based
How it was run: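 CHO-K1 cells stably expressing receptor, 1500 cells/well, preincubated briefly with 10-point 5-fold compound series (top final typically 10 or 100 μM) in PBS with 1 mM IBMX, then challenged with isoproterenol at EC90 for 1 h at room temperature. cAMP read by HTRF against on-plate standard curve; IC50 from dose-response.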

Chain of Beta-3 Adrenergic Receptor (P13945 whole entry, species assumed): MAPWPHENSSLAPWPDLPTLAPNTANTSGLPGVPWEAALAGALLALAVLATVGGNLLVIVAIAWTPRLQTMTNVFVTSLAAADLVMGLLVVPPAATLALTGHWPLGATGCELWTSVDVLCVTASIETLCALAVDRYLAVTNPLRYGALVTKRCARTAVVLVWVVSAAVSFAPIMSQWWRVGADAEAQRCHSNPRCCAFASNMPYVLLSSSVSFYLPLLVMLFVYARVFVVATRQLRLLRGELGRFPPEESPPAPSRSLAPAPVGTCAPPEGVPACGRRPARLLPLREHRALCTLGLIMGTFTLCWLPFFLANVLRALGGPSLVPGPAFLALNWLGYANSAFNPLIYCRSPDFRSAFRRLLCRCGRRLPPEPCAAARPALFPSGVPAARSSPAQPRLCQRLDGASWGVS

| SMILES | IC50 [nM] |
| --- | --- |
| CNS(=O)(=O)c1cccc(OC[C@@H](O)CN[C@@H]2COC3(CCN(S(=O)(=O)c4cccc(-c5cccnc5)c4)CC3)C2)c1 [Compound 284, 3-((S)-2-hydroxy-3-((S)-8-(3-(pyridin-3-yl)phenylsulfonyl)-1-oxa-8-azaspiro[4.5]decan-3-ylamino)propoxy)-N-methylbenzenesulfonamide] | 11.6 |
| CNS(=O)(=O)c1cccc(OC[C@@H](O)CN[C@H]2COC3(CCN(S(=O)(=O)c4cccc(-c5cccnc5)c4)CC3)C2)c1 [Compound 285, 3-((S)-2-hydroxy-3-((R)-8-(3-(pyridin-3-yl)phenylsulfonyl)-1-oxa-8-azaspiro[4.5]decan-3-ylamino)propoxy)-N-methylbenzenesulfonamide] | 25 |
| CNS(=O)(=O)c1cccc(OC[C@@H](O)CN[C@@H]2COC3(CCN(S(=O)(=O)c4cccc(-c5ccc(N)nc5)c4)CC3)C2)c1 [Compound 286, 3-((S)-3-((S)-8-(3-(6-aminopyridin-3-yl)phenylsulfonyl)-1-oxa-8-azaspiro[4.5]decan-3-ylamino)-2-hydroxypropoxy)-N-methylbenzenesulfonamide] | 20.5 |
| CNS(=O)(=O)c1cccc(OC[C@@H](O)CN[C@H]2COC3(CCN(S(=O)(=O)c4cccc(-c5ccc(N)nc5)c4)CC3)C2)c1 [Compound 287, 3-((S)-3-((R)-8-(3-(6-aminopyridin-3-yl)phenylsulfonyl)-1-oxa-8-azaspiro[4.5]decan-3-ylamino)-2-hydroxypropoxy)-N-methylbenzenesulfonamide] | 21.9 |
| CNS(=O)(=O)c1cccc(OC[C@@H](O)CN[C@@H]2COC3(CCN(S(=O)(=O)c4cccc(-c5ccc(CN)cc5)c4)CC3)C2)c1 [Compound 288, 3-((S)-3-((S)-8-(4′-(aminomethyl)biphenyl-3-ylsulfonyl)-1-oxa-8-azaspiro[4.5]decan-3-ylamino)-2-hydroxypropoxy)-N-methylbenzenesulfonamide] | 13.4 |
| CNS(=O)(=O)c1cccc(OC[C@@H](O)CN[C@H]2COC3(CCN(S(=O)(=O)c4cccc(-c5ccc(CN)cc5)c4)CC3)C2)c1 [Compound 289, 3-((S)-3-((R)-8-(4′-(aminomethyl)biphenyl-3-ylsulfonyl)-1-oxa-8-azaspiro[4.5]decan-3-ylamino)-2-hydroxypropoxy)-N-methylbenzenesulfonamide] | 16.5 |
| CN(C)S(=O)(=O)c1cccc(OC[C@@H](O)CNC2COC3(CCN(S(=O)(=O)c4ccc(CN)cc4)CC3)C2)c1 (stereo partly drawn) [Compound 290, 3-((2S)-3-(8-(4-(aminomethyl)phenylsulfonyl)-1-oxa-8-azaspiro[4.5]decan-3-ylamino)-2-hydroxypropoxy)-N,N-dimethylbenzenesulfonamide] | 175 |
| CNS(=O)(=O)c1cccc(OC[C@@H](O)CN[C@@H]2COC3(CCN(S(=O)(=O)c4cccc(-c5ccc(S(N)(=O)=O)cc5)c4)CC3)C2)c1 [Compound 291, 3′-((S)-3-((S)-2-hydroxy-3-(3-(N-methylsulfamoyl)phenoxy)propylamino)-1-oxa-8-azaspiro[4.5]decan-8-ylsulfonyl)biphenyl-4-sulfonamide] | 8.84 |
| CNS(=O)(=O)c1cccc(OC[C@@H](O)CN[C@H]2COC3(CCN(S(=O)(=O)c4cccc(-c5ccc(S(N)(=O)=O)cc5)c4)CC3)C2)c1 [Compound 292, 3′-((R)-3-((S)-2-hydroxy-3-(3-(N-methylsulfamoyl)phenoxy)propylamino)-1-oxa-8-azaspiro[4.5]decan-8-ylsulfonyl)biphenyl-4-sulfonamide] | 30.1 |
| CNS(=O)(=O)c1cccc(OC[C@@H](O)CN[C@@H]2COC3(CCN(S(=O)(=O)c4cccc(-c5ccc(CC#N)cc5)c4)CC3)C2)c1 [Compound 293, 3-((S)-3-((S)-8-(4′-(cyanomethyl)biphenyl-3-ylsulfonyl)-1-oxa-8-azaspiro[4.5]decan-3-ylamino)-2-hydroxypropoxy)-N-methylbenzenesulfonamide] | 16.2 |
| CNS(=O)(=O)c1cccc(OC[C@@H](O)CN[C@H]2COC3(CCN(S(=O)(=O)c4cccc(-c5ccc(CC#N)cc5)c4)CC3)C2)c1 [Compound 294, 3-((S)-3-((R)-8-(4′-(cyanomethyl)biphenyl-3-ylsulfonyl)-1-oxa-8-azaspiro[4.5]decan-3-ylamino)-2-hydroxypropoxy)-N-methylbenzenesulfonamide] | 56.2 |
| CNS(=O)(=O)c1cccc(OC[C@@H](O)CN[C@@H]2COC3(CCN(S(=O)(=O)c4cccc(-c5cc[nH]n5)c4)CC3)C2)c1 [Compound 295, 3-((S)-3-((S)-8-(3-(1H-pyrazol-3-yl)phenylsulfonyl)-1-oxa-8-azaspiro[4.5]decan-3-ylamino)-2-hydroxypropoxy)-N-methylbenzenesulfonamide] | 7.22 |
| CNS(=O)(=O)c1cccc(OC[C@@H](O)CN[C@H]2COC3(CCN(S(=O)(=O)c4cccc(-c5cc[nH]n5)c4)CC3)C2)c1 [Compound 296, 3-((S)-3-((R)-8-(3-(1H-pyrazol-3-yl)phenylsulfonyl)-1-oxa-8-azaspiro[4.5]decan-3-ylamino)-2-hydroxypropoxy)-N-methylbenzenesulfonamide] | 17.5 |
| CNS(=O)(=O)c1cccc(OC[C@@H](O)CN[C@@H]2COC3(CCN(S(=O)(=O)c4cccc(-c5ccc(OCC#N)cc5)c4)CC3)C2)c1 [Compound 297, 3-((S)-3-((S)-8-(4′-(cyanomethoxy)biphenyl-3-ylsulfonyl)-1-oxa-8-azaspiro[4.5]decan-3-ylamino)-2-hydroxypropoxy)-N-methylbenzenesulfonamide] | 15.9 |
| CNS(=O)(=O)c1cccc(OC[C@@H](O)CN[C@H]2COC3(CCN(S(=O)(=O)c4cccc(-c5ccc(OCC#N)cc5)c4)CC3)C2)c1 [Compound 298, 3-((S)-3-((R)-8-(4′-(cyanomethoxy)biphenyl-3-ylsulfonyl)-1-oxa-8-azaspiro[4.5]decan-3-ylamino)-2-hydroxypropoxy)-N-methylbenzenesulfonamide] | 26 |
| CNS(=O)(=O)c1cccc(OC[C@@H](O)CN[C@@H]2COC3(CCN(S(=O)(=O)c4ccc5c(c4)N(C)CCO5)CC3)C2)c1 [Compound 299, 3-((S)-2-hydroxy-3-((S)-8-(4-methyl-3,4-dihydro-2H-benzo[b][1,4]oxazin-6-ylsulfonyl)-1-oxa-8-azaspiro[4.5]decan-3-ylamino)propoxy)-N-methylbenzenesulfonamide] | 11.8 |
| CNS(=O)(=O)c1cccc(OC[C@@H](O)CN[C@H]2COC3(CCN(S(=O)(=O)c4ccc5c(c4)N(C)CCO5)CC3)C2)c1 [Compound 300, 3-((S)-2-hydroxy-3-((R)-8-(4-methyl-3,4-dihydro-2H-benzo[b][1,4]oxazin-6-ylsulfonyl)-1-oxa-8-azaspiro[4.5]decan-3-ylamino)propoxy)-N-methylbenzenesulfonamide] | 10.9 |
| CNCc1ccc(-c2cccc(S(=O)(=O)N3CCC4(CC3)CC(NC[C@H](O)COc3cccc(S(=O)(=O)NC)c3)CO4)c2)cc1 (stereo partly drawn) [Compound 301, 3-((2S)-2-hydroxy-3-(8-(4′-((methylamino)methyl)biphenyl-3-ylsulfonyl)-1-oxa-8-azaspiro[4.5]decan-3-ylamino)propoxy)-N-methylbenzenesulfonamide] | 31.6 |
| CCNCc1ccc(-c2cccc(S(=O)(=O)N3CCC4(CC3)CC(NC[C@H](O)COc3cccc(S(=O)(=O)NC)c3)CO4)c2)cc1 (stereo partly drawn) [Compound 302, 3-((2S)-3-(8-(4′-((ethylamino)methyl)biphenyl-3-ylsulfonyl)-1-oxa-8-azaspiro[4.5]decan-3-ylamino)-2-hydroxypropoxy)-N-methylbenzenesulfonamide] | 458 |
| CNS(=O)(=O)c1cccc(OC[C@@H](O)CNC2COC3(CCN(S(=O)(=O)c4cccc(-c5ccc(CNC(C)C)cc5)c4)CC3)C2)c1 (stereo partly drawn) [Compound 303, 3-((2S)-2-hydroxy-3-(8-(4′-((isopropylamino)methyl)biphenyl-3-ylsulfonyl)-1-oxa-8-azaspiro[4.5]decan-3-ylamino)propoxy)-N-methylbenzenesulfonamide] | 32.6 |
| CNS(=O)(=O)c1cccc(OC[C@@H](O)CNC2COC3(CCN(S(=O)(=O)c4cccc(-c5ccc(CNCCO)cc5)c4)CC3)C2)c1 (stereo partly drawn) [Compound 304, 3-((2S)-2-hydroxy-3-(8-(4′-((2-hydroxyethylamino)methyl)biphenyl-3-ylsulfonyl)-1-oxa-8-azaspiro[4.5]decan-3-ylamino)propoxy)-N-methylbenzenesulfonamide] | 43 |
| CNS(=O)(=O)c1cccc(OC[C@@H](O)CNC2COC3(CCN(S(=O)(=O)c4cccc(-c5ccc(CNCCN(C)C)cc5)c4)CC3)C2)c1 (stereo partly drawn) [Compound 305, 3-((2S)-3-(8-(4′-((2-(dimethylamino)ethylamino)methyl)biphenyl-3-ylsulfonyl)-1-oxa-8-azaspiro[4.5]decan-3-ylamino)-2-hydroxypropoxy)-N-methylbenzenesulfonamide] | 63.5 |
| NS(=O)(=O)c1cccc(OC[C@@H](O)CNC2COC3(CCN(S(=O)(=O)c4ccc5ccccc5c4)CC3)C2)c1 (stereo partly drawn) [Compound 306, 3-((2S)-2-hydroxy-3-(8-(naphthalen-2-ylsulfonyl)-1-oxa-8-azaspiro[4.5]decan-3-ylamino)propoxy)benzenesulfonamide] | 65.4 |
| CN(C)CCCNS(=O)(=O)c1cccc(OC[C@@H](O)CNC2COC3(CCN(S(=O)(=O)c4cccc(Cl)c4)CC3)C2)c1 (stereo partly drawn) [Compound 307, 3-((2S)-3-(8-(3-chlorophenylsulfonyl)-1-oxa-8-azaspiro[4.5]decan-3-ylamino)-2-hydroxypropoxy)-N-(3-(dimethylamino)propyl)benzenesulfonamide] | 3370 |
| COc1ccc(S(=O)(=O)N2CCC3(CC2)CC(NC[C@H](O)COc2cccc(S(=O)(=O)NCCCN(C)C)c2)CO3)cc1C (stereo partly drawn) [Compound 308, N-(3-(dimethylamino)propyl)-3-((2S)-2-hydroxy-3-(8-(4-methoxy-3-methylphenylsulfonyl)-1-oxa-8-azaspiro[4.5]decan-3-ylamino)propoxy)benzenesulfonamide] | 1820 |

— patent publication US11987588B2, “Modulators of the beta-3 adrenergic receptor useful for the treatment or prevention of heart failure and disorders related thereto” (Arena Pharmaceuticals, Inc., priority 2017, dated 2024)
